Measurements from ChEMBL document CHEMBL1151312, “A concise conversion of (-)-sclareol into (+)-coronarin E and (-)-7-epi-coronarin A” (J Nat Prod, 1998).
≈ marks a conversion by molar mass, not a printed value.

Tested on: V79
Experiment: Cytotoxicity against Chinese hamster V79 cells
Format: cell-based
Settings: Cricetulus griseus

Q: C=C1[C@@H](O)C[C@H]2C(C)(C)CCC[C@]2(C)[C@H]1/C=C/c1ccoc1 [CORONARIN A] was tested. Which IC50 did it give?
A: 1.65 µg/mL (≈ 5.49 µM)
